Patent US5004746A, “Anti-retroviral castanospermine esters” (Merrell Dow Pharmaceuticals Inc., priority 1987, dated 1991)
Converted amounts (≈) assume the structure as drawn. Like-named read-outs stand apart in the source and are kept apart here.

Legend:
[1] = system: influenza infected cells; details: cited from earlier work
[2] = system: viral protein glycosylation; details: cited from earlier work
[3] = system: HIV-infected cells; details: Blough et al. 1986; cited from earlier work
[4] = system: HIV glycoproteins; details: Blough et al. 1986; cited from earlier work
[5] = system: HIV; details: Blough et al. 1986; cited from earlier work
[6] = system: Moloney murine leukemia virus (MoLV); assay: in vitro XC plaque assay (inhibition of growth and replication of murine leukemia virus); format: cell-based; details: SC1, MoLV on mouse SC-1 cells, rat XC cells, compound added 2 hours prior to virus, read-out: IC50 (inhibitory concentration)
Description: This assay was performed according to the method of Rowe et al. (Virology, 1970, 42, 1136-39) as previously described by L. Hsu, et al. (J. Viroloqical Methods, 1980, 1, 167-77) and T. L. Bowlin and M. R. Proffitt (J. Interferon Res., 1983, 3(1), 19-31). Mouse SC-1 cells (fibroblast) (10^5) were seeded into each well of 6-well cluster plates (Costar #3506) in 4 ml Minimum Essential Medium (MEM) with 10% Fetal Calf Serum (FCS). Following an 18 hour incubation period (37° C.), Moloney murine leukemia virus (MoLV) was applied at a predetermined titer to give optimal (i.e. countable) numbers of virus plaques. Compounds were added 2 hours prior to addition of the virus. Three days later the culture medium was removed, the SC-1 cell monolayers were exposed to UV irradiation (1800 ergs), and rat XC cells […] were seeded into each well in 4 ml MEM. Following an additional 3 day incubation (37° C.), these cells were fixed with ethyl alcohol (95%) and stained with 0.3% crystal violet. Plaques were then counted under low magnification.

| SMILES | IC50 [6] | also measured |
| --- | --- | --- |
| OC[C@H]1OC(O)[C@@H](F)[C@@H](O)[C@@H]1O (stereo partly drawn) [2-deoxy-2-fluoro-D-mannose] | – | antiviral activity against influenza infected cells [1]: exhibit antiviral activity against influenza infected cells; inhibition of viral protein glycosylation [2]: preventing the glycosylation of viral membrane protein |
| OC[C@H]1OC(O)[C@H](F)[C@@H](O)[C@@H]1O (some centres unmarked) [2-deoxy-2-fluoroglucose] | – | inhibition of viral protein glycosylation [2]: inhibit viral protein glycosylation |
| O=CC[C@@H](O)[C@H](O)[C@H](O)CO [2-deoxy-D-glucose] | – | viral multiplication of HIV-infected cells [3]: stopped; inhibition of viral protein glycosylation ([2]; McDowell et al. 1985): inhibit viral protein glycosylation; inhibition of expression of HIV glycoproteins [4]: inhibit expression of HIV glycoproteins; block of formation of syncytia [5]: block the formation of syncytia |
| O=C(O[C@H]1CN2CC[C@H](O)[C@@H]2[C@@H](O)[C@@H]1O)c1ccco1 [R = 2-Furanoyl, R1 = H, R2 = H, 6-(2-Furancarboxylate)] | 1 µg/mL (≈ 3.53 µM) | – |
| CC(=O)O[C@H]1CN2CC[C@H](O)[C@@H]2[C@@H](O)[C@@H]1O [R = Ac, R1 = H, R2 = H, [1S-(1α,6β,7α,8β,8aβ)]-octahydro-1,6,7,8-indolizinetetrol 6-acetate] | 10 µg/mL (≈ 43.2 µM) | – |
| CCCC(=O)O[C@H]1[C@H](O)[C@@H](OC(=O)CCC)CN2CC[C@H](O)[C@H]12 [R = Butanoyl, R1 = H, R2 = Butanoyl, [1S-(1α,6β,7α,8β,8aβ)]-octahydro-1,6,7,8-indolizinetetrol 6,8-dibutanoate] | 0.5 µg/mL (≈ 1.52 µM) | – |
| CCCC(=O)O[C@H]1CN2CC[C@H](O)[C@@H]2[C@@H](O)[C@@H]1O [R = Butanoyl, R1 = H, R2 = H, [1S(1α,6β,7α,8β,8aβ)]-octahydro-1,6,7,8indolizinetrol 6-butanoate] | 0.1 µg/mL (≈ 0.386 µM) | – |
| O=C(O[C@H]1[C@H](O)[C@H]2[C@@H](O)CCN2C[C@@H]1OC(=O)c1ccccc1)c1ccccc1 [R = Bz, R1 = Bz, R2 = H, [1S-(1α,6β,7α,8β,8aβ)]-octahydro-1,6,7,8-indolizinetetrol 6,7-dibenzoate] | 10 µg/mL (≈ 25.2 µM) | – |
| O=C(O[C@H]1CN2CC[C@H](O)[C@@H]2[C@@H](O)[C@@H]1O)c1ccccc1 [R = Bz, R1 = H, R2 = H, [1S-(1α,6β,7α,8β,8aβ)]octahydro-1,6,7,8-indolizinetetrol 6-benzoate] | 0.1 µg/mL (≈ 0.341 µM) | – |
| O=C(O[C@H]1[C@H](O)[C@H]2[C@@H](O)CCN2C[C@@H]1O)c1ccc(Cl)cc1Cl [R = H, R1 = 2,4-Cl2 -Bz, R2 = H, [1S-(1α,6β,7α,8β,8aβ)]-octahydro-1,6,7,8-indolizinetetrol 7-(2,4-dichlorobenzoate)] | 1 µg/mL (≈ 2.76 µM) | – |
| O=C(O[C@H]1[C@H](O)[C@H]2[C@@H](O)CCN2C[C@@H]1O)c1ccccc1 [R = H, R1 = Bz, R2 = H, [1S-(1α,6β,7α,8β,8aβ)]-octahydro 1,6,7,8-indolizinetetrol 7-benzoate] | 1 µg/mL (≈ 3.41 µM) | – |
| Cc1ccc(C(=O)O[C@H]2[C@H](O)[C@H]3[C@@H](O)CCN3C[C@@H]2O)cc1 [R = H, R1 = p-CH3 Bz, R2 = H, [1S-(1α,6β,7α,8β,8aβ)]-octahydro-1,6,7,8-indolizinetetrol 7-(4-methylbenzoate)] | 1 µg/mL (≈ 3.25 µM) | – |
| Cc1ccc(C(=O)O[C@H]2CN3CC[C@H](O)[C@@H]3[C@@H](O)[C@@H]2O)cc1 [R = p-CH3 -Bz, R1 = H, R2 = H, [1S-(1α,6β,7α,8β,8aβ)]-octahydro-1,6,7,8-indolizinetetrol 6-(4-methylbenzoate)] | 1 µg/mL (≈ 3.25 µM) | – |
| COc1ccc(C(=O)O[C@H]2CN3CC[C@H](O)[C@@H]3[C@@H](O)[C@@H]2O)cc1 [R = p-CH3 O-Bz, R1 = H, R2 = H, [1S-(1α,6β,7α,8β,8aβ)]-octahydro-1,6,7,8-indolizinetetrol 6-(4-methoxybenzoate)] | 10 µg/mL (≈ 30.9 µM) | – |
| O=C(O[C@H]1CN2CC[C@H](O)[C@@H]2[C@@H](O)[C@@H]1O)c1ccc(F)cc1 [R = p-F-Bz, R1 = H, R2 = H, [1S-(1α,6β,7α,8β,8aβ)]-octahydro-1,6,7,8-indolizinetetrol 6-(4-fluorobenzoate)] | 10 µg/mL (≈ 32.1 µM) | – |
| O=C(O[C@H]1[C@H](O)[C@H]2[C@@H](O)CCN2C[C@@H]1OC(=O)c1ccc(F)cc1)c1ccc(F)cc1 [R = p-F-Bz, R1 = p-F-Bz, R2 = H, [1S-(1α,6β,7α,8β,8aβ)]-octahydro-1,6,7,8-indolizinetetrol 6,7-bis(4-fluorobenzoate)] | 10 µg/mL (≈ 23.1 µM) | – |
| CCC(O)[C@H](N)C(=O)O (stereo partly drawn) [β-hydroxy-norvaline] | – | viral multiplication of HIV-infected cells [3]: stopped; inhibition of expression of HIV glycoproteins [4]: inhibit expression of HIV glycoproteins; block of formation of syncytia [5]: block the formation of syncytia |
